The record followed here is patent US20250161321A1, “AMINO ACID BASED CARBAMATES AND/OR UREAS FOR THE TREATMENT OF SORTILIN DEPENDENT DISEASES” (Vesper Bio ApS, priority 2022, published 2025).

This assay concerns the target h-Sortilin (Homo sapiens (Human), UniProt Q99523). Nature of the assay: Neurotensin scintillation proximity assay (SORTILIN Binding Assay [3H]NT SPA). The following applies: displacement of 5 nM [3H]-neurotensin from 150 nM 6his-Sortilin; average of at least 2 determinations. As for the experimental part:
The exemplified compounds of the invention were tested in a Neurotensin (NTS) scintillation proximity assay (SPA). NTS, which is a 13 amino acid neuropeptide, is a sortilin ligand. The IC50 is a measure of the amount of the compound required to inhibit the binding of NTS to sortilin by 50%. The skilled person will recognise that the lower the IC50 value, the less of the compound needed to achieve the desired effect, and as a result, the chances of undesirable off-target effects are reduced.
Compound affinity was determined by measuring the displacement of [^3H]-neurotensin binding to h-Sortilin in SPA format. Total volume of 40 μl in 50 mM HEPES pH 7.4 assay buffer containing 100 mM NaCl, 2.0 mM CaCl2, 0.1% BSA and 0.1% Tween-20. Compound pre-incubation for 30 minutes at room temperature with 150 nM of 6his-Sortilin before 5 nM [3H]-Neurotensin and Ni chelate imaging beads (Perkin Elmer) were added, after 6 hours the plate was read on a ViewLux with 360 s exposure time. Dose-response evaluation of compounds was performed with 8 concentrations of drugs (covering 3 decades). IC50 values were calculated by nonlinear regression using the sigmoid concentration-response (variable slope) using CDD Vault software. All values reported are average of at least 2 determinations.

h-Sortilin, sequence (Q99523 78-831): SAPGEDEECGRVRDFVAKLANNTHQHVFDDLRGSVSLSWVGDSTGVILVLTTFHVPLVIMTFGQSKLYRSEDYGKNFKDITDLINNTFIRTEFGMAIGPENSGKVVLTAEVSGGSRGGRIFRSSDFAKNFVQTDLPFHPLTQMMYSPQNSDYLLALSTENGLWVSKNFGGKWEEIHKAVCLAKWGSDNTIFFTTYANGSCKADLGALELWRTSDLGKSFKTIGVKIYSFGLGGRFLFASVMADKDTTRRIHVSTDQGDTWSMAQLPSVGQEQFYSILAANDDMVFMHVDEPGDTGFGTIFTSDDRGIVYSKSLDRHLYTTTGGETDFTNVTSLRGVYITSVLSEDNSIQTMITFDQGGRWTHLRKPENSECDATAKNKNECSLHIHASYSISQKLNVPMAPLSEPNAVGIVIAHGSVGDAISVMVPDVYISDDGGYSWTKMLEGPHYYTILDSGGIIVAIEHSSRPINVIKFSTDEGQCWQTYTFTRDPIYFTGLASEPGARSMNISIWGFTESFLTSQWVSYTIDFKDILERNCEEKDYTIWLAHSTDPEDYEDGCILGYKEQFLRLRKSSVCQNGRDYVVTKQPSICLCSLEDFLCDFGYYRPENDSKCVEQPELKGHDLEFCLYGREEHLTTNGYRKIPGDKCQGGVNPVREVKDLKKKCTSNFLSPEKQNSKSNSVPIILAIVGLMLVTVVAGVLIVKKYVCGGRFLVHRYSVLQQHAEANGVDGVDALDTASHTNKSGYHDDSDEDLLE

The IC50 is the concentration that gives 50% inhibition. `CC(C)(C)CC[C@H](NC(=O)NCc1ccccc1)C(=O)O` [Example 1, (2S)-2-[(benzylcarbamoyl)amino]-5,5-dimethylhexanoic acid]: the concentration for half-maximal inhibition (IC50) was determined as 0.38 µM. That is a sub-micromolar value.
The result for `CN(Cc1ccccc1)C(=O)N[C@@H](CCC(C)(C)C)C(=O)O` [Example 2, (2S)-2-{[benzyl(methyl)carbamoyl]amino}-5,5-dimethylhexanoic acid] reads 0.43 µM; that for `CC(C)(C)CC[C@H](NC(=O)OCc1ccccc1)C(=O)O` [Example 3, (2S)-2-{[(benzyloxy)carbonyl]amino}-5,5-dimethylhexanoic acid], 0.56 µM; that for `CC(C)(C)CC[C@H](NC(=O)N1CCOCC1)C(=O)O` [Example 4, (2S)-5,5-dimethyl-2-[(morpholine-4-carbonyl)amino]hexanoic acid], 0.26 µM.
The result for `CC(C)(C)CC[C@H](NC(=O)N1CCCOCC1)C(=O)O` [Example 5, (2S)-5,5-dimethyl-2-[(1,4-oxazepane-4-carbonyl)amino]hexanoic acid] reads 0.37 µM.
